Test results taken from ChEMBL document CHEMBL1153688, “Design, synthesis, and pharmacological evaluation of dual histamine H2 and gastrin receptor antagonists” (Bioorg Med Chem Lett, 1996).

Assays:
[1] = molecular target: Cholecystokinin receptor (Mus musculus) (UniProt O08786+P56481); assay: Ratio of IC50(gastrin) to IC50(CCK-A); assay type: protein assay
Histamine H2 receptor = Histamine H2 receptor (Rattus norvegicus, UniProt P25102); assay: Antagonistic activity for inhibition of histamine H2 receptor from anesthetized rats; assay type: functional; details: read-out: pA2 (converted)
[2] = molecular target: T1, Gastrin/cholecystokinin type B receptor (Mus musculus, UniProt P56481); assay: Inhibitory activity against Cholecystokinin type B receptor
T1 sequence (P56481 whole entry): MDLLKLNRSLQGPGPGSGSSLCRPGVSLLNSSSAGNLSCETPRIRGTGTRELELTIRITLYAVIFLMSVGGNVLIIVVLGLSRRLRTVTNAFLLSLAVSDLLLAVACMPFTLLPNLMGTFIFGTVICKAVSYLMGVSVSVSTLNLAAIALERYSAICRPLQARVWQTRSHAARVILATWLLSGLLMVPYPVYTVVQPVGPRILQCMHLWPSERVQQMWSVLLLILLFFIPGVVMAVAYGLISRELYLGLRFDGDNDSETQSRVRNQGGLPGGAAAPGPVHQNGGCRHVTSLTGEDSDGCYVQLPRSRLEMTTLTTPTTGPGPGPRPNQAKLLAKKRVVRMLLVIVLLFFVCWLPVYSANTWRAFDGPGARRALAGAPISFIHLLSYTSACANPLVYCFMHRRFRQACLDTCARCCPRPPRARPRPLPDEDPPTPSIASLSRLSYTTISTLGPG

[3] = molecular target: T2, Cholecystokinin receptor type A (Mus musculus, UniProt O08786); assay: Inhibitory activity against Cholecystokinin type A receptor
T2 sequence (O08786 whole entry): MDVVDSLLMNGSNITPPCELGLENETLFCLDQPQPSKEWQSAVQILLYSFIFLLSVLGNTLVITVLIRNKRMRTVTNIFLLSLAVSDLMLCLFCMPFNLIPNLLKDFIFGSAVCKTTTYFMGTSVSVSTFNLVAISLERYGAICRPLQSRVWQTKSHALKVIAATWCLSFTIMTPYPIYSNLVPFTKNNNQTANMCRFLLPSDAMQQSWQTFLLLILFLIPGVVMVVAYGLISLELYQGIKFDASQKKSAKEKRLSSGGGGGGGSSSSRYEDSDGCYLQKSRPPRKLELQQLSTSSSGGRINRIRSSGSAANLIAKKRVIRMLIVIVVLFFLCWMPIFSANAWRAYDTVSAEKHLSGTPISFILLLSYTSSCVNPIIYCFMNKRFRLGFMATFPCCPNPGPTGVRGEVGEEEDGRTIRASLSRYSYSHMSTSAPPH

Sequence of Histamine H2 receptor (P25102 whole entry): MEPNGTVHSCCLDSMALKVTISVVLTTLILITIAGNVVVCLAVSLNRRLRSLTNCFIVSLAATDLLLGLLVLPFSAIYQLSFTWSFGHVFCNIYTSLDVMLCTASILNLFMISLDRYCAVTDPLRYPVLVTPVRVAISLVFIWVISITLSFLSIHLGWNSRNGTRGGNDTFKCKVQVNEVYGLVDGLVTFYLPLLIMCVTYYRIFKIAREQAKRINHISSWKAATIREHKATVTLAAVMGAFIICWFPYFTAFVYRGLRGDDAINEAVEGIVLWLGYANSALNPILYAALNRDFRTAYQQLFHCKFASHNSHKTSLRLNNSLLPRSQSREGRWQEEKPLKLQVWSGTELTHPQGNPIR

SMILES	Ratio [1]	Kb (Histamine H2 receptor)	IC50 [2]	IC50 [3]
CN1C(=O)[C@H](NC(=O)Nc2cccc(C(=O)NCCCOc3cccc(CN4CCCCC4)c3)c2)N=C(c2ccccc2)c2ccccc21	4.5	> 10000 nM	600 nM	2500 nM
Cc1cccc(NC(=O)NC2N=C(c3ccccc3)c3ccccc3N(CC(=O)NCCC(=O)NCCCOc3cccc(CN4CCCCC4)c3)C2=O)c1 (centres undefined)	7	794 nM	2150 nM	1300 nM
Cc1cccc(NC(=O)NC2N=C(c3ccccc3)c3ccccc3N(CC(=O)NCCCC(=O)NCCCOc3cccc(CN4CCCCC4)c3)C2=O)c1 (centres undefined)	4.3	794 nM	5000 nM	900 nM
CN1C(=O)[C@H](NC(=O)Nc2cccc(C(=O)NCCSCc3csc(N=C(N)N)n3)c2)N=C(c2ccccc2)c2ccccc21	1	> 10000 nM	440 nM	380 nM
Cc1cccc(NC(=O)NC2N=C(c3ccccc3)c3ccccc3N(CC(=O)NCC(=O)NCCSCc3csc(N=C(N)N)n3)C2=O)c1 (centres undefined)	2.1	3980 nM	6800 nM	760 nM
Cc1cccc(NC(=O)NC2N=C(c3cccc(OCC(=O)NCC(=O)NCCCOc4cccc(CN5CCCCC5)c4)c3)c3ccccc3N(C)C2=O)c1 (centres undefined)	82.5	501 nM	550 nM	5200 nM
Cc1cccc(NC(=O)NC2N=C(c3cccc(OCC(=O)NCCC(=O)NCCCOc4cccc(CN5CCCCC5)c4)c3)c3ccccc3N(C)C2=O)c1 (centres undefined)	75	501 nM	760 nM	15000 nM
Cc1cccc(NC(=O)NC2N=C(c3ccccc3)c3ccccc3N(CC(=O)NCCCCCC(=O)NCCCOc3cccc(CN4CCCCC4)c3)C2=O)c1 (centres undefined)	40.6	398 nM	800 nM	650 nM
Cc1cccc(NC(=O)NC2N=C(c3ccccc3)c3ccccc3N(CC(=O)NCCSCc3csc(N=C(N)N)n3)C2=O)c1 (centres undefined)	1600	> 10000 nM	35 nM	4800 nM
Cc1cccc(NC(=O)NC2N=C(c3ccccc3)c3ccccc3N(CC(=O)NCC(=O)NCCCOc3cccc(CN4CCCCC4)c3)C2=O)c1 (centres undefined)	0.5	6310 nM	3600 nM	430 nM
Cc1cccc(NC(=O)NC2N=C(c3cccc(OCC(=O)NCCCC(=O)NCCCOc4cccc(CN5CCCCC5)c4)c3)c3ccccc3N(C)C2=O)c1 (centres undefined)	157	316 nM	290 nM	9400 nM
CN1C(=O)[C@H](NC(=O)Nc2cccc(CC(=O)NCCCOc3cccc(CN4CCCCC4)c3)c2)N=C(c2ccccc2)c2ccccc21	17.8	> 10000 nM	160 nM	4100 nM
CN/C(=N/CCSCc1nc[nH]c1C)NC#N [CIMETIDINE]	–	251 nM	–	–
Cc1cccc(NC(=O)NC2N=C(c3cccc(OCC(=O)NCCCCCC(=O)NCCCOc4cccc(CN5CCCCC5)c4)c3)c3ccccc3N(C)C2=O)c1 (centres undefined)	112	631 nM	320 nM	3600 nM
Cc1cccc(NC(=O)NC2N=C(c3ccccc3)c3ccccc3N(CC(=O)NCCCOc3cccc(CN4CCCCC4)c3)C2=O)c1 (centres undefined)	36.8	> 10000 nM	540 nM	5700 nM
Cc1cccc(NC(=O)NC2N=C(c3cccc(OCC(=O)NCCSCc4csc(N=C(N)N)n4)c3)c3ccccc3N(C)C2=O)c1 (centres undefined)	40	5010 nM	350 nM	5400 nM
CN1C(=O)[C@H](NC(=O)Nc2cccc(CC(=O)NCCCCCC(=O)NCCCOc3cccc(CN4CCCCC4)c3)c2)N=C(c2ccccc2)c2ccccc21	3.1	631 nM	92 nM	340 nM
Cc1cccc(NC(=O)NC2N=C(c3cccc(OCC(=O)NCCCOc4cccc(CN5CCCCC5)c4)c3)c3ccccc3N(C)C2=O)c1 (centres undefined)	16.1	5010 nM	1700 nM	9200 nM
Cc1cccc(NC(=O)N[C@@H]2N=C(c3ccccc3)c3ccccc3N(C)C2=O)c1 [L-365260]	–	–	–	11100 nM
CN1C(=O)[C@H](NC(=O)Nc2cccc(CC(=O)NCCSCc3csc(N=C(N)N)n3)c2)N=C(c2ccccc2)c2ccccc21	3.4	> 10000 nM	480 nM	560 nM

Now from value to compound:

Ratio [1]	Kb (Histamine H2 receptor)	IC50 [2]	IC50 [3]	SMILES
150	631 nM	215 nM	2100 nM	Cc1cccc(NC(=O)NC2N=C(c3cccc(OCC(=O)NCCCC(=O)NCCSCc4csc(N=C(N)N)n4)c3)c3ccccc3N(C)C2=O)c1 (centres undefined)
1.5	398 nM	200 nM	120 nM	CN1C(=O)[C@H](NC(=O)Nc2cccc(CC(=O)NCCC(=O)NCCSCc3csc(N=C(N)N)n3)c2)N=C(c2ccccc2)c2ccccc21
1.4	251 nM	290 nM	190 nM	CN1C(=O)[C@H](NC(=O)Nc2cccc(CC(=O)NCCC(=O)NCCCOc3cccc(CN4CCCCC4)c3)c2)N=C(c2ccccc2)c2ccccc21
5.2	1260 nM	430 nM	390 nM	Cc1cccc(NC(=O)NC2N=C(c3ccccc3)c3ccccc3N(CC(=O)NCCC(=O)NCCSCc3csc(N=C(N)N)n3)C2=O)c1 (centres undefined)
3.8	3160 nM	6600 nM	720 nM	Cc1cccc(NC(=O)NC2N=C(c3ccccc3)c3ccccc3N(CC(=O)NCCCC(=O)NCCSCc3csc(N=C(N)N)n3)C2=O)c1 (centres undefined)
1.4	501 nM	330 nM	330 nM	CN1C(=O)[C@H](NC(=O)Nc2cccc(CC(=O)NCCCC(=O)NCCSCc3csc(N=C(N)N)n3)c2)N=C(c2ccccc2)c2ccccc21
90.8	1000 nM	310 nM	1090 nM	Cc1cccc(NC(=O)NC2N=C(c3cccc(OCC(=O)NCC(=O)NCCSCc4csc(N=C(N)N)n4)c3)c3ccccc3N(C)C2=O)c1 (centres undefined)
4.2	1000 nM	255 nM	190 nM	CN1C(=O)[C@H](NC(=O)Nc2cccc(CC(=O)NCCCCCC(=O)NCCSCc3csc(N=C(N)N)n3)c2)N=C(c2ccccc2)c2ccccc21
80	794 nM	400 nM	2000 nM	Cc1cccc(NC(=O)NC2N=C(c3cccc(OCC(=O)NCCC(=O)NCCSCc4csc(N=C(N)N)n4)c3)c3ccccc3N(C)C2=O)c1 (centres undefined)
2.9	398 nM	205 nM	330 nM	CN1C(=O)[C@H](NC(=O)Nc2cccc(CC(=O)NCCCC(=O)NCCCOc3cccc(CN4CCCCC4)c3)c2)N=C(c2ccccc2)c2ccccc21
